Legend:
[1] = system: IMQ-induced, psoriasis-like skin inflammation; assay type: in vivo, C57BL/6 mice; details: for penetration of the skin: mouse, in vivo
Procedure: Western blot analysis was performed as described before. The following antibodies were used and purchased from Cell Signaling: anti-IκBζ (9244), anti-phospho-STAT3 at Tyr705 (9145), anti-phospho-STAT3 at Ser727 (9134), anti-STAT3 (12640), anti-p65 (8242), anti-EZH2 (5246), anti-pRB (phospho-RB at Ser807/811; 8516), anti-FoxM1 (5436), anti-H3 (4499), anti-CDK4 (12790), anti-CDK6 (13331), anti-CDK9 (2316), anti-cyclin D1 (2978), anti-cyclin D2 (3741), anti-cyclin D3 (2936), anti-cJUN (9165), anti-H3K27me3 (9733), anti-GAPDH (2118), anti-H3 (9715) and anti-β-actin (3700). Anti-β-Gal (sc377257) and anti-GFP (sc9996) were obtained from Santa Cruz Biotechnology. Anti-pEZH2 at T345 (61242) anti-pEZH2 at T487 (12820) were purchased from Active Motif and anti-pan-methyl-lysine antibody was purchased from Enzo (ADI-KAP-TF121-E). For detection of mouse IκB, a self-made antibody raised against peptides […] (SEQ ID NO:3) and […] (SEQ ID NO:4) was applied.
Gene expression analyses were performed as described. Relative gene expression was analyzed using self-designed primers ordered at Metabion (not shown). Relative mRNA levels were calculated by normalization to the human reference gene RPL37A or the mouse reference gene Actin using the 2-ΔΔCt method.
Experiments were conducted in accordance with the German law guide-lines of animal care. Ears of female C57BL/6 mice (8-12 weeks old) were topically treated for 6 consecutive days with 5 mg Aldara cream (containing 5% imiquimod, 3M Pharmaceutical) and 0.02 mg of abemaciclib (in 10 μL ethanol), 0.05 mg CPI-169 (in 10 μL ethanol) or vehicle control. At day 7, mice were sacrificed and analysed. For IL-36α-mediated psoriasis induction, ears of male C57BL/6 mice (8-12 weeks old) were treated by intradermal injections using 1 μg murine IL-36α (aa 8-160, R&D) or PBS control for 5 consecutive days. For application of the vehicle control, abemaciclib (0.02 mg) or CPI-169 (0.05 mg), substances were mixed with Miglyol 812 (Carl Roth) in a ratio of 1:4. Inhibitors were topically applicated 6 h before intradermal injections of IL-36α or PBS were applied. Mice were sacrificed and analysed at day 6.
Sample preparation was performed as described. The following anti-mouse antibodies from BioLegend were used: anti-CD45 FITC (103107), anti-CD11b PacificBlue (101223), anti-Ly6G PE (127607), anti-F4/80 APC (123115), anti-CD11c Pacific Blue (117322), anti-MHC-II APC (107613), anti-CD172a PE (144011) and anti-Silec-H PE (129605). Anti-PDCA-1 APC (17-2092-80) and anti-αβTCR PE (HM3628) were purchased from Invitrogen, and anti-γδ-TCR APC (17-5711-82) from Sigma. Data was acquired on a LSRII flow cytometer (Becton Dickson).
Ear sections from mice were fixed in 10% formalin (Carl Roth) and subsequently embedded in paraffin. 5-μm sections were prepared and incubated with the following antibodies from Cell Signaling: pSTAT3 (9145), pRB (8516) and H3K27me3 (9733). For staining of human skin samples, EZH2 antibody (Cell Signaling, 5246) was used. Antigen retrieval was performed in 1 mM EDTA pH 8.0 for pSTAT3, and 10 mM citrate buffer pH 6.0+0.5% Triton X-100 for EZH2, H3K27me3 and pRB. After incubation with peroxidase-coupled secondary antibodies, sections were stained with DAB substrate.

[2] = system: IL-36-triggered psoriasis-like dermatitis; test: IL-36α-mediated psoriasis-like dermatitis mouse model, topical treatment of ears; assay type: in vivo, C57BL/6 mice
Procedure: Western blot analysis was performed as described before. The following antibodies were used and purchased from Cell Signaling: anti-IκBζ (9244), anti-phospho-STAT3 at […] (9145), anti-phospho-STAT3 at […] (9134), anti-STAT3 (12640), anti-p65 (8242), anti-EZH2 (5246), anti-pRB (phospho-RB at […]/811; 8516), anti-FoxM1 (5436), anti-H3 (4499), anti-CDK4 (12790), anti-CDK6 (13331), anti-CDK9 (2316), anti-cyclin D1 (2978), anti-cyclin D2 (3741), anti-cyclin D3 (2936), anti-cJUN (9165), anti-H3K27me3 (9733), anti-GAPDH (2118), anti-H3 (9715) and anti-β-actin (3700). Anti-β-Gal (sc377257) and anti-GFP (sc9996) were obtained from Santa Cruz Biotechnology. Anti-pEZH2 at […] (61242) anti-pEZH2 at […] (12820) were purchased from Active Motif and anti-pan-methyl-lysine antibody was purchased from Enzo ([…]). For detection of mouse IκB, a self-made antibody raised against peptides […] NO:3) and […] NO:4) was applied. Gene expression analyses were performed as described. Relative gene expression was analyzed using self-designed primers ordered at Metabion (not shown). Relative mRNA levels were calculated by normalization to the human reference gene RPL37A or the mouse reference gene Actin using the 2-ΔΔCt method. Experiments were conducted in accordance with the German law guide-lines of animal care. Ears of female C57BL/6 mice (8-12 weeks old) were topically treated for 6 consecutive days with 5 mg Aldara cream (containing 5% imiquimod, 3M Pharmaceutical) and 0.02 mg of abemaciclib (in 10 μL ethanol), 0.05 mg CPI-169 (in 10 μL ethanol) or vehicle control. At day 7, mice were sacrificed and analysed. For IL-36α-mediated psoriasis induction, ears of male C57BL/6 mice (8-12 weeks old) were treated by intradermal injections using 1 μg murine IL-36α (aa 8-160, R&D) or PBS control for 5 consecutive days. For application of the vehicle control, abemaciclib (0.02 mg) or CPI-169 (0.05 mg), substances were mixed with Miglyol 812 (Carl Roth) in a ratio of 1:4. Inhibitors were topically applicated 6 h before intradermal injections of IL-36α or PBS were applied. Mice were sacrificed and analysed at day 6. […]

[3] = system: TH1 cytokines and tumor-infiltrating T cells; details: experimental cancer model, Deng et al.; cited from earlier work
[4] = flow cytometry of IMQ-treated mouse ears, day 7

SMILES	IκBζ expression in the skin, phosphorylation of EZH2 at T345 and of STAT3 at Y705 ([1]; IMQ-treated mouse skin, day 7)	expression of IκBζ target genes (Cxcl2, Cxcl5) and DC- and T-cell-derived cytokines (Il17a, Il23a) ([1]; IMQ-treated skin, day 7)	H3K27me3 expression in the epidermis (EZH2 inhibition) ([1]; ear skin sections of treated mice, FIG. 10c)	immune cell infiltration (neutrophils, macrophages and T cells) [1, 4]	number of infiltrating plasmacytoid (pDC) and myeloid dendritic cells (mDC) [1, 4]	penetration of the skin [1]	IMQ-induced, psoriasis-like skin inflammation (ear thickening, keratinocyte hyperproliferation, immune cell infiltration) ([1]; topical, daily 6 days, abemaciclib 0.02 mg, CPI-169 0.05 mg per ear)	IκBζ target gene expression and key cytokine expression (Il17a, Il23a) ([2]; IL-36α-treated skin, FIG. 12g)	keratinocyte hyperproliferation and immune cell infiltration ([2]; intradermal IL-36α 5 days, topical inhibitor, day 6)	IL-36-mediated expression of IκBζ, phosphorylation of EZH2 at T345 and activation of STAT3 (pSTAT3 Y705) ([2]; skin of treated mouse ears, day 6)	levels of TH1 cytokines and tumor-infiltrating T cells [3]
CCS(=O)(=O)N1CCC([C@@H](C)n2c(C)c(C(=O)NCc3c(OC)cc(C)[nH]c3=O)c3ccccc32)CC1 [CPI-169]	completely abrogated	significantly downregulated	loss	fully abrogated	significantly suppressed	effectively penetrated the skin	completely suppressed	effectively blocked	effectively blocked	suppressed	–
CN1CCN(c2ccc(Nc3ncc4cc5n(c4n3)C3(CCCCC3)CNC5=O)nc2)CC1 [trilaciclib]	–	–	–	–	–	–	–	–	–	–	increased
CCN1CCN(Cc2ccc(Nc3ncc(F)c(-c4cc(F)c5nc(C)n(C(C)C)c5c4)n3)nc2)CC1 [abemaciclib]	–	–	–	–	–	effectively penetrated the skin	–	–	–	–	–
